The values that follow are results of earlier work, collected in patent US20150272891A1, “DOSAGE FORMS COMPRISING APIXABAN AND MATRIX FORMER” (RATIOPHARM GMBH, priority 2012, published 2015).

Molecules are shown by their SMILES.

The conditions of this data set: compared with N-1 form.

With `COc1ccc(-n2nc(C(N)=O)c3c2C(=O)N(c2ccc(N4CCCCC4=O)cc2)CC3)cc1` [H2-2 form, 1-(4-methoxyphenyl)-7-oxo-6-[4-(2-oxopiperidin-1-yl)phenyl]-4,5,6,7-tetrahydro-1H-pyrazolo[3,4-c]pyridine-3-carbamide], the “stability of polymorphous form” value is listed as “less stable than the granular, non-solvate N-1 form”.
